These results are taken from patent publication US8309581B2, “Benzimidazole derivatives” (Hoffmann-La Roche Inc., priority 2009, dated 2012).

This experiment concerns the target T1, FXR ligand binding domain (Homo sapiens, UniProt Q96RI1).
T1 construct: made in house; host or cells: E. coli BL21 (pLysS)
T1 sequence (Q96RI1 193-472 isoform Q96RI1-2): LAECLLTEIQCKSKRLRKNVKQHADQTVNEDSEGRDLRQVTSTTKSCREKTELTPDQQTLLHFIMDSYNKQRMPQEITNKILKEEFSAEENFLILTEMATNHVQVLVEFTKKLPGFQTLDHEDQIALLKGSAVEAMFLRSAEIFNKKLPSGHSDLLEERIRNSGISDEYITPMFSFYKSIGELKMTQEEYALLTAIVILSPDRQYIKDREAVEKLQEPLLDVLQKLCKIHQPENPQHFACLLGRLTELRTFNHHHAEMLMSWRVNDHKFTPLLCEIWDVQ
As to the kind of experiment: Radioligand Binding Assay (scintillation proximity radioligand displacement). Conditions: GST-FXR LBD fusion protein on SPA beads, test compound 6×10^−9 M to 2.5×10^−5 M. The method in brief: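 GST-fused human FXR LBD (aa 193-473, E. coli-expressed, 40 nM) was bound to glutathione SPA beads in 50 mM Hepes pH 7.4, 10 mM NaCl, 5 mM MgCl2, 0.01% CHAPS. Displacement of radioligand (e.g. 20 nM) was measured over 6×10^−9 to 2.5×10^−5 M compound, and IC50 calculated.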
In general terms: Scintillation proximity formats need no separation of bound from free tracer.
A word on the IC50: it is the midpoint of a concentration-inhibition curve. Low values mean greater potency in that assay, high ones weaker potency in that assay. As to `O=C(O)C1CCC(COc2cc(Cl)ccc2-c2nc3cc(F)c(F)cc3n2CC2CCCCC2)CC1` (stereo not shown) [Example 29, 4-[5-Chloro-2-(1-cyclohexylmethyl-5,6-difluoro-1H-benzoimidazol-2-yl)-phenoxymethyl]-cyclohexane carboxylic acid], the half-maximal inhibitory concentration (IC50) was 700 nM.
The value for `Fc1cc2nc(-c3ccc(Cl)cc3OCC3CCCC3)n(Cc3cccc(-c4nnn[nH]4)c3)c2cc1F` [Example 67, 2-(4-Chloro-2-cyclopentylmethoxy-phenyl)-5,6-difluoro-1-[3-(1H-tetrazol-5-yl)-benzyl]-1H-benzoimidazole] was 90 nM.
In turn, `Fc1cc(-c2nnn[nH]2)ccc1COc1cc(Cl)ccc1-c1nc2ccccc2n1CC1CCCCC1` [Example 39, 2-{4-Chloro-2-[2-fluoro-4-(1H-tetrazol-5-yl)-benzyloxy]-phenyl}-1-cyclohexylmethyl-1H-benzoimidazole] gave an IC50 of 30 nM.
The value for `Fc1cc2nc(-c3ccccc3COc3ccc(-c4nnn[nH]4)cc3F)n(CC3CCCCC3)c2cc1F` [Example 40, 1-Cyclohexylmethyl-5,6-difluoro-2-{2-[2-fluoro-4-(1H-tetrazol-5-yl)-phenoxymethyl]-phenyl}-1H-benzoimidazole] was 4 nM; that for `O=C(O)c1ccc(COc2ncccc2-c2nc3cc(F)c(F)cc3n2CC2CCCCC2)cc1` [Example 4, 4-[3-(1-Cyclohexylmethyl-5,6-difluoro-1H-benzoimidazol-2-yl)-pyridin-2-yloxymethyl]-benzoic acid] was 5800 nM.
Compound `Fc1cc2nc(-c3ccc(Cl)cc3OCc3ccc(-c4nnn[nH]4)cc3F)n(CCC3CCCCC3)c2cc1F` [Example 43, 2-{4-Chloro-2-[2-fluoro-4-(1H-tetrazol-5-yl)-benzyloxy]-phenyl}-1-(2-cyclohexyl-ethyl)-5,6-difluoro-1H-benzoimidazole] gave a 50% inhibitory concentration (IC50) of 90 nM. Against the preceding compound, the IC50 is about 64-fold lower.
Regarding `Fc1cc2nc(-c3cccnc3OCC3CCCC3)n(Cc3ccccc3)c2cc1F` [Example 7, 1-Benzyl-2-(2-cyclopentylmethoxy-pyridin-3-yl)-5,6-difluoro-1H-benzoimidazole], the IC50 stood at 3800 nM.
Take `O=C(O)c1ccc(COc2ncccc2-c2nc3cc(F)c(F)cc3n2Cc2ccccc2)cc1` [Example 9, 4-[3-(1-Benzyl-5,6-difluoro-1H-benzoimidazol-2-yl)-pyridin-2-yloxymethyl]-benzoic acid]: the IC50 worked out at 10500 nM.
The value for `Fc1cc2nc(-c3ccc(Cl)cc3OCCc3ccc(-c4nnn[nH]4)cc3)n(CC3CCCCC3)c2cc1F` [Example 36, 2-(4-Chloro-2-{2-[4-(1H-tetrazol-5-yl)-phenyl]-ethoxy}-phenyl)-1-cyclohexylmethyl-5,6-difluoro-1H-benzoimidazole] was 90 nM; that for `Fc1cc2nc(-c3ccc(Cl)cc3OCC3CC3)n(Cc3cccc(Cl)c3)c2cc1F` [Example 55, 1-(3-Chloro-benzyl)-2-(4-chloro-2-cyclopropylmethoxy-phenyl)-5,6-difluoro-1H-benzoimidazole] was 2600 nM; that for `Fc1cc2nc(-c3ccc(Cl)cc3OCC3CC3)n(Cc3ccccc3)c2cc1F` [Example 50, 1-Benzyl-2-(4-chloro-2-cyclopropylmethoxy-phenyl)-5,6-difluoro-1H-benzoimidazole] was 1900 nM.
The value for `Fc1cc2nc(-c3ccc(Cl)cc3OCc3ccccc3Cl)n(Cc3ccccc3)c2cc1F` [Example 48, 1-Benzyl-2-[4-chloro-2-(2-chloro-benzyloxy)-phenyl]-5,6-difluoro-1H-benzoimidazole] was 400 nM.
As for `Fc1cc2nc(-c3ccccc3OCc3ccc(-c4nnn[nH]4)cc3F)n(CC3CCCCC3)c2cc1F` [Example 34, 1-Cyclohexylmethyl-5,6-difluoro-2-{2-[2-fluoro-4-(1H-tetrazol-5-yl)-benzyloxy]-phenyl}-1H-benzoimidazole], the figure is 30 nM.
